# Source: PMC11892739, “Site-specific molecular glues for the 14-3-3/Tau pS214 protein–protein interaction via reversible covalent imine tethering” (RSC Medicinal Chemistry, 2025)
# Square brackets hold non-standard residues; d marks the D form. Peptide text beside a SMILES is read from it. pS = N[C@@H](COP(=O)(O)O)C(=O)O
# Target: 14-3-3ζ
# Experiment: not given
# Parameters: method as in doi:10.1101/2024.03.15.585148
# Conditions: FA assay; read-out: KD of monovalent Tau peptide to 14-3-3ζ; cited from earlier work
row,SMILES,Kd [µM]
1,CC[C@H](C)[C@H](NC(=O)[C@H](CC(N)=O)NC(=O)CNC(=O)[C@H](CC(C)C)NC(=O)[C@H](COP(=O)(O)O)NC(=O)CNC(=O)[C@H](CS)NC(=O)[C@H](CCCCN)NC(=O)[C@H](CO)NC(=O)[C@@H](NC(=O)[C@@H](NC(C)=O)C(C)C)[C@@H](C)O)C(=O)N[C@@H](Cc1c[nH]cn1)C(=O)N[C@@H](Cc1c[nH]cn1)C(=O)N[C@@H](CCCCN)C(=O)O [Tau pS324] (Ac-VTSKCG[pS]LGNIHHK-OH; C-terminus assumed),> 100
2,CC(=O)N[C@@H](CO)C(=O)N[C@@H](CCCNC(=N)N)C(=O)N[C@H](C(=O)N1CCC[C@H]1C(=O)N[C@@H](COP(=O)(O)O)C(=O)N[C@@H](CC(C)C)C(=O)N1CCC[C@H]1C(=O)N[C@H](C(=O)N1CCC[C@H]1C(=O)N1CCC[C@H]1C(=O)N[C@H](C(=O)N[C@@H](CCCNC(=N)N)C(=O)N[C@@H](CCC(=O)O)C(=O)O)[C@@H](C)O)[C@@H](C)O)[C@@H](C)O [Tau pS214] (Ac-SRTP[pS]LPTPPTRE-OH; C-terminus assumed),> 100

# Target: T1, 14-3-3ζ/Tau pS2 peptide interaction (Homo sapiens, UniProt P63104)
# T1 construct: made in house; host or cells: NiCo21 (DE3) E. coli
# T1 sequence (P63104 1-245): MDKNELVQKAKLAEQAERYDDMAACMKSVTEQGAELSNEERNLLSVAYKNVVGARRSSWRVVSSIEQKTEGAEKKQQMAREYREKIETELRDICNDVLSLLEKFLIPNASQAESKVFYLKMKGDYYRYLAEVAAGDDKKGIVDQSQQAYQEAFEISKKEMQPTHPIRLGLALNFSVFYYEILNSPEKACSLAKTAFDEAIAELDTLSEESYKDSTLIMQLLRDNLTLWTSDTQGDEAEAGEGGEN
# Experiment: Fluorescence anisotropy 14-3-3ζ titration in the presence of 250 μM compound and Tau pS2 peptide
# Format: binding
# Conditions: 250 μM compound; apparent KD compared to internal DMSO reference
# Procedure: On the other hand, the PPI stabilizing potency of series 1 compounds was highly dependent on the position and chemical property of the substituent. […] The compound screen for these compounds was further complemented by 14-3-3ζ titration assays in the presence of a constant concentration of compound (250 μM) and Tau pS2 peptide (10 nM) (Fig. 3c, ESI ^† Fig. S6).
# This statement is strengthened by the diminished stabilizing activity when shifting the more polar chloro substituent from the para (14) to the ortho (5) to the meta position (8), respectively. […]
# chromatography (HisTrap high performance cartridges, Cytiva). Typically two 5 mL columns were used for a 2 L culture in which the lysate was loaded on the column, washed with 10 CV wash buffer (50 mM Hepes, pH 8.0, 300 mM NaCl, 25 mM imidazole, 2 mM βME), and eluted with several fractions (2-4 CV) of elution buffer (50 mM Hepes, pH 8.0, 300 mM NaCl, 250 mM imidazole, 2 mM βME). Fractions containing the 14-3-3 protein were combined and dialyzed into 25 mM HEPES pH 8.0, 200 mM NaCl, 10 mM MgCl2, 2 mM βME, followed by dialysis into 25 mM HEPES, 100 mM NaCl, 10 mM MgCl2, 500 μM TCEP (adjusted to pH 8.0). Dialyzed protein was concentrated to ∼40 mg/mL, analyzed by Q -Tof LC/MS, and aliquots were flash -frozen for storage at −80 °C. For 14 -3-3σ∆c, 1 mg TEV per 100 mg purified protein was added to the dialysis to remove the purification tag. The cleaved sample was then again loaded on a 10 mL Ni-NTA column to separate the cleaved product from the expression tag and residual uncleaved protein. The flowthrough was loade d on a Superdex 75 pg 16/60 size exclusion column (GE Life Sciences) using 25 mM HEPES, 100 mM NaCl, 10 mM MgCl2, 500 μM TCEP (adjusted to pH = 8.0) as running buffer. Fractions containing the 14 -3-3 protein were pooled and concentrated to ∼60 mg/mL, analyzed Q -Tof LC/MS, and aliquots were flash -frozen for storage at −80°C.
# (§1) Fluorescence Anisotropy – compound titration
# (§2) Compound titration assays were performed by titrating compounds (in 1% DMSO, starting at 500 μM) in a 2-fold dilution series to preformed complex of fluorescein -labeled Tau pS2 (10 nM) and 14 -3-3ζ (100 nM) (which represents approximately 20% bound Tau pS2 peptide to 14 -3-3ζ to allow further complex formation by addition of fragments 1) in FA buffer (10 mM HEPES pH 7.4, 150 mM NaCl, 50 µM TCEP, 0.1% (v/v) Tween20, 0.1% (w/v) BSA). Dilution series were made in polystyrene low -volume 384 -well plates (Corning #4514, Black Round Bottom). Measurements were performed directly after plate preparation, using a Tecan SPARK plate reader at room temperature ( λex: 485±20 nm; λem: 535±25 nm; mirror: automatic; flashes: 30; settle time: 1 ms; gain: optimal; Z -position: calculated from well). Wells containing only fluorescein labelled peptide were used to set as G -factor calibrated from these wells. All data were analyzed using GraphPad Prism (10.0.1) and fitted with a four -parameter logistic model (4PL) to determine binding affinities (dissociation constant, KD). All data shown is background corrected for the signal without 14 -3-3ζ and the mean and standard deviation of technical duplicate is plotted, assay performed in a scientific duplicate for hit compounds.
# Fluorescence Anisotropy – 14-3-3 titrations in the presence of compound To characterize the affinity of the Tau peptides for 14-3-3 in the presence of compound, 14-3-3ζ or γ was titrated in a 2-fold dilution series starting at 400 (for the 14-3-3ζ titrations to Tau pS2) or 800 (for the 14-3-3γ titrations to Tau pS214 or pS324) µM. 14-3-3 was added to 10 nM of fluorescein-labeled peptide (Tau pS2, Tau pS214 or Tau pS324) in the presence of 250 µM compound (1% DMSO). The assays were performed in a similar way as described above. Data shown is the average and standard deviation of a technical duplicate, top plateau corrected where needed, assay performed in a scientific duplicate.
# Fluorescence Anisotropy – peptide screen […]
row,SF250μM (stabilization factor),SMILES
1,15,O=Cc1ccc(-n2ccnc2-c2ccccc2)cc1Cl [Compound 25]
2,16,O=Cc1ccc(-n2ccnc2-c2ccc(N3CCOCC3)cc2)cc1Br [Compound 23]
3,4.3,O=Cc1ccc(-n2ccnc2-c2cccc3cccnc23)cc1Br [Compound 33]
4,20,O=Cc1ccc(-n2c(-c3cccnc3)nc3ccccc32)cc1Br [Compound 2]
5,6.1,O=Cc1ccc(-n2ccnc2-c2ccccc2)cc1C(F)(F)F [Compound 27]
6,1.8,O=Cc1ccc(-n2ccnc2-c2ccccc2)cc1I [Compound 26]
7,19,O=Cc1ccc(-n2c(-c3ccc(OCCO)cc3)nc3ccccc32)cc1Br [Compound 31]
8,7.5,O=Cc1ccc(-n2ccnc2-c2ccccc2Cl)cc1Br [Compound 5]
9,11,Cc1ccccc1-c1nccn1-c1ccc(C=O)c(Br)c1 [Compound 3]
10,8.3,COc1ccc(-c2nc3ccccc3n2-c2ccc(C=O)c(Br)c2)cc1 [Compound 29]

# Same assay, conditions: screening hits
row,stabilization of the 14-3-3ζ/Tau pS2 peptide complex [fold],SMILES
1,20,O=Cc1ccc(-n2c(-c3cccnc3)nc3ccccc32)cc1Br [Compound 2]

# Target: T1, 14-3-3ζ/Tau pS2 peptide interaction
# Experiment: Fluorescence anisotropy compound titration to preformed 14-3-3ζ/Tau pS2 peptide complex
# Format: binding
# Conditions: FA
# Procedure: With the compound library constructed, we sought to screen the stabilizing activity of the imidazole analogs for the 14-3-3ζ/Tau pS2 peptide interaction. In this regard, a fluorescence anisotropy (FA) assay was performed where each individual compound was titrated against a fixed concentration of 14-3-3ζ (100 nM) and fluorescein-labelled Tau pS2 peptide (10 nM; Fig. 3a and b, ESI ^† Fig. S4 and S5, Table 1, ESI ^† Table S1). Thereby, the fixed 14-3-3ζ concentration was based on the EC20 value of the binary complex formation to enable a sufficient dynamic window for ternary complex formation. […] For each compound dose–response curve, the background signal (titration without 14-3-3ζ) was subtracted, to exclude possible false positive results. […]
# chromatography (HisTrap high performance cartridges, Cytiva). […] Dialyzed protein was concentrated to ∼40 mg/mL, analyzed by Q -Tof LC/MS, and aliquots were flash -frozen for storage at −80 °C. […] Fractions containing the 14 -3-3 protein were pooled and concentrated to ∼60 mg/mL, analyzed Q -Tof LC/MS, and aliquots were flash -frozen for storage at −80°C.
# as §1
# as §2, with “Dilution series were made in polystyrene low -volume 384 -well plates (Corning #4514, Black Round Bottom).” left out, “Wells containing only fluorescein labelled peptide were used to set as G -factor calibrated from these wells.” left out, “All data shown is background corrected for the signal without 14 -3-3ζ and the mean and standard deviation of technical duplicate is plotted, assay performed in a scientific duplicate for hit compounds.” left out
row,SMILES,PPI stabilizing activity (in words)
1,O=Cc1ccc(-n2ccnc2-c2ccc(OCCO)cc2)cc1Br [Compound 24],did not show an improvement in PPI stabilization
2,O=Cc1ccc(-n2ccnc2-c2cccc(O)c2)cc1Br [Compound 9],slightly inhibited 14-3-3ζ/Tau pS2 peptide complex formation
3,CC(C)c1ccc(-c2nccn2-c2ccc(C=O)c(Br)c2)cc1 [Compound 19],completely diminished PPI stabilization
